# Assay results: patent US20200253929A1, “TREATMENT OF EPILEPSY” (priority 2017, published 2020)
# Key:
# Cav1.2 channel = target: T1, Cav1.2 channel (Homo sapiens, UniProt Q13936); assay: Cardiotoxicity fluorescence-based assay, Cav1.2 channel; assay type: cell-based; conditions: HEK293 cells
# T1 construct: expressed in transfected cells; host or cells: HEK293
# Protocol: Fluorescence-based assays were performed using HEK293 cell lines that stably express the Nav1.5-channel, Cav1.2-channel or hERG K+-channel, using FMP Red Dye (Molecular Devices), calcium-sensitive fluorescent dye Fluo-4 (Invitrogen) and FIuxOR™ reagent (Invitrogen), respectively, and a FLIPR Tetra High-Throughput Cellular Screening System (Molecular Devices), according to manufacturer's protocols (Molecular Devices). Tetrodotoxin (TTX), israpidine and nicarpidine, and astemizole and haloperidol were used as standard sodium channel, calcium channel, and hERG channel blockers. Data were analyzed using Genedata Screener.
# THLE2 cells = assay: Cell viability MTT assay, THLE2 cells; assay type: cell-based, human; conditions: 24 h incubation; for IC50: read-out: Cytotoxicity THLE2 cells IC50
# Protocol: (§1) Protocol was based on literature [Patel and Patel. (2011) J. App. Pharm. Sci 1, 167-171]. Three cell lines were used: a) Hep G2 (HB-8065), a well-differentiated human hepatocellular carcinoma cell line, b) THLE-2, human liver epithelial cells transformed with SV40 large T-antigen and c) SHSYSY, a thrice-cloned sub-line of a human metastatic bone tumor. Cells were seeded at a concentration of 1×10^4 cells/well in 200 μL culture medium and incubated at 37° C. in 5% CO2 using 96-well plates for 24 h. Next, the medium was replaced with medium complemented with test compounds. After another 24 h incubation, the medium was replaced by 100 μL of a MTT (3-(4,5-dimethylthiazol-2-yl)-2,5-diphenyltetrazolium bromide) solution (5 mg/mL in PBS and diluted at 0.5 mg/mL in MEM without phenol red). The plates were gently shaken and incubated for 3 hours at 37° C. in a 5% CO2 incubator. The supernatant was removed and 100 μL of 100% DMSO was added. The plates were gently shaken to solubilize the formed formazan. The absorbance was measured using a multireader (Victor2 (Wallac)) at a wavelength of 570 nm.
# [1] = Metabolic stability assay (hepatic clearance); assay type: in vitro ADME; conditions: human liver microsomes; for Hepatic clearance / Hepatic clearance t1/2 (half-life): 1 μM
# Protocol: The assay was performed with a mixture of test compounds (1 μM), NADPH (4 mM) and Human Liver Microsomes (HLM) (1 mg/mL) incubated at 37° C. Reactions were quenched at 0, 15, 30, 45, 60, and 90 min, using an equal volume of acetonitrile and then diluted 1:1 with water prior to analysis by LC-MS/MS. The analysis was performed using an Agilent Series 1290 LC system (Agilent Technologies, Santa Clara, Calif., USA) using a Supelco Discovery HS C18 (2.1×50 mm) 3 µm column that was held at 30° C. Solvent A contained water with 0.1% formic acid and solvent B contained acetonitrile with 0.1% formic acid, and the flow rate was set at 400 μL/min. The gradient elution was performed as follows: 0-0.5 min 0% eluent B; 0.5-7 min 100% eluent B; 7-9 min 100% eluent B; 9-9.2 min 0% eluent B; and 9.2-10.5 min 0% eluent B. An API 4000 mass spectrometer in positive ESI mode (AB SCIEX, Concord, ON, Canada) was used with a generic method for data acquisition on all compounds. Data processing was performed using MultiQuant Software (AB SCIEX, Concord, ON, Canada) to process the data. Peak areas were used to plot the Ln % remaining relative to time (t)=0. The slope of the natural log of the percent remaining versus time was calculated to determine the first-order rate constant (k) and the half-life (t1/2) of the test compounds according to the following equation: t1/2=0.693/k (min)
# zebrafish larvae = assay: Zebrafish toxicity evaluation (maximum tolerated concentration); assay type: in vivo, Danio rerio; conditions: up to 18 hours exposure, 100 μg/mL used where no MTC was reached
# Protocol: In case no MTC was reached, 100 μg/mL was used as the test concentration. In line with studies previously reported [Baraban et al. (2005) Neurosci 131, 759-768; Afrikanova et al. (2013) PLoS One 8, e54166], addition of the GABAA-receptor antagonist PTZ to the swimming water of 7 days post-fertilization (dpf) zebrafish larvae strongly elevated larval locomotion (p≤0.001) (FIGS. 2 and 3) as a result of induced seizures (or seizure-like behavior) that were recognized as typical high-speed swimming, whirlpool-like circling, clonus-like seizures, and loss of posture, as previously described in Baraban et al cited above.
# Maximum tolerated concentration (MTC) was determined prior to further experiments and used as the highest test concentration. MTC was investigated by exposing 12 larvae of 6 days post-fertilization (dpf) to a range of concentrations in a 100 μL volume during 18 hours. The following parameters were investigated after 2 and 18 hours of exposure: touch response, morphology, posture, edema, signs of necrosis, swim bladder, and heartbeat. […] In case MTC was not reached, 100 μg/mL was used as the highest test concentration.
# SHSY5Y cells = assay: Cell viability MTT assay, SHSY5Y cells; assay type: cell-based, human; conditions: 24 h incubation; for IC50: read-out: Cytotoxicity SHSY5Y cells IC50
# Protocol: as §1
# [2] = Parallel artificial membrane permeability assay (PAMPA); assay type: in vitro ADME; conditions: for Permeability: 10 μM, 5 h, RT
# Protocol: The Gentest Pre-coated PAMPA Plate System (Corning) was used to perform the permeability assays. The 96 well filter plate, pre-coated with lipids, was used as the permeation acceptor and a matching 96 well receiver plate was used as the permeation donor. Compound solutions were prepared by diluting 10 mM DMSO stock solutions in PBS with a final concentration at 10 μM. The compound solutions were added to the wells (300 μL/well) of the receiver plate and PBS was added to the wells (200 μL/well) of the pre-coated filter plate. The filter plate was then coupled with the receiver plate and the plate assembly was incubated at RT without agitation for 5 h. Next, the plates were separated and 50 μL solution from each well of both the filter plate and the receiver plate was transferred to a vial with 150 μL acetonitrile and centrifuged at 13300 rpm for 10 min at 4° C. The supernatant was diluted in a solution water/acetonitrile (50/50). The final concentration of compounds in both donor wells and acceptor wells was analyzed by LC-MS/MS. Permeability of the compounds was calculated using the following equation:
# Permeability (cm/s): Pe={−ln[1−CA(t)/Ceq]}/[A*(1/VD+1/VA)*t]}
# A=filter area (0.3 cm2), VD=donor well volume (0.3 mL), VA=acceptor well volume (0.2 mL), t=incubation time (s), CA(t)=compound concentration in acceptor well at time t, CD(t)=compound concentration in donor well at time t, and Ceq=[CD(t)*VD+CA(t)*VA]/(VD+VA)]
# T1 sequence (P54289 25-1103): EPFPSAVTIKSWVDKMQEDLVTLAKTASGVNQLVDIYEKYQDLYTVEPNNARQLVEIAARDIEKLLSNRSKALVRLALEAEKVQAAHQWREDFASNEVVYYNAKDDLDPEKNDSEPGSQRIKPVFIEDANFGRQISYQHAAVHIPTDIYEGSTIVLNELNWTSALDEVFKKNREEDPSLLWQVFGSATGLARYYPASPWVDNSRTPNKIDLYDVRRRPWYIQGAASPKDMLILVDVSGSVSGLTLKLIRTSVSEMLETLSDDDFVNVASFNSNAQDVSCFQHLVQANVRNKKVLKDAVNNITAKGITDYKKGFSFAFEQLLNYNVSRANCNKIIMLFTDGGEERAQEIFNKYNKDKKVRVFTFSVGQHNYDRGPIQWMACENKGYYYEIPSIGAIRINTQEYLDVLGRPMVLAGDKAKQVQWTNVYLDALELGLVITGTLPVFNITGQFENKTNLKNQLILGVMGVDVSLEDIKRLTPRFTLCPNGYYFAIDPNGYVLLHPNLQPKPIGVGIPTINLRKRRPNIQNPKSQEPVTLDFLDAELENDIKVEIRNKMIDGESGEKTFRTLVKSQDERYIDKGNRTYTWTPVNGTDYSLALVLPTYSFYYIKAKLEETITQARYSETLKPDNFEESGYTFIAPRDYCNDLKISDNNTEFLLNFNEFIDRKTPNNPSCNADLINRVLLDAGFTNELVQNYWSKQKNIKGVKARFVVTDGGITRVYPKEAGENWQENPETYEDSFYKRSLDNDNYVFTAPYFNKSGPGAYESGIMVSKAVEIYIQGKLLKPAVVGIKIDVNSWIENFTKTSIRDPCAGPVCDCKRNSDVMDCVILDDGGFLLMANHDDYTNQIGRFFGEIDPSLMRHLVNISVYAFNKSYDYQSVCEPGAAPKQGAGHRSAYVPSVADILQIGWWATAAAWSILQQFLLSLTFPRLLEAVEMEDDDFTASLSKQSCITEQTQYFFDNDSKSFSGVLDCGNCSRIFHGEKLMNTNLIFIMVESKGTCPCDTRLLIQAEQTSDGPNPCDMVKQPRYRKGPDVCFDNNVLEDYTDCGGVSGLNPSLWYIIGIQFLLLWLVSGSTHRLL
# T1 sequence (Q08289 whole entry, further chain): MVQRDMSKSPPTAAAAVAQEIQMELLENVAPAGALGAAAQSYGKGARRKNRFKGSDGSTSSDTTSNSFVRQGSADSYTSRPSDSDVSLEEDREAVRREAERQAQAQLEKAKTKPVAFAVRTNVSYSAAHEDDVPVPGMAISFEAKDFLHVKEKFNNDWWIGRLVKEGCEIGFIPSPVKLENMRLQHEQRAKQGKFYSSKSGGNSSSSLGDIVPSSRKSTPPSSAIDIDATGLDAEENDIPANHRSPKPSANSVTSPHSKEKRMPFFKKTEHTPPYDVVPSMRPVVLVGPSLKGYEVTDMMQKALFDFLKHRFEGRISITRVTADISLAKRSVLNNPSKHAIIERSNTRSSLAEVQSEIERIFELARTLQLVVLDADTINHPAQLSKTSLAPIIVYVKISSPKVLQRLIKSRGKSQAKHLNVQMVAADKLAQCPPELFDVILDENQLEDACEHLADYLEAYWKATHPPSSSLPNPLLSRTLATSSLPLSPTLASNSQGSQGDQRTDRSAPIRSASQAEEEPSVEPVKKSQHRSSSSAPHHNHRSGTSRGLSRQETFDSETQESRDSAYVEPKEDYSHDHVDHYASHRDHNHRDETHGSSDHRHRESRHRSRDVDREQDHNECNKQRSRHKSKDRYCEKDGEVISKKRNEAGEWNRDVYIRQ
# T1 sequence (Q13936 whole entry): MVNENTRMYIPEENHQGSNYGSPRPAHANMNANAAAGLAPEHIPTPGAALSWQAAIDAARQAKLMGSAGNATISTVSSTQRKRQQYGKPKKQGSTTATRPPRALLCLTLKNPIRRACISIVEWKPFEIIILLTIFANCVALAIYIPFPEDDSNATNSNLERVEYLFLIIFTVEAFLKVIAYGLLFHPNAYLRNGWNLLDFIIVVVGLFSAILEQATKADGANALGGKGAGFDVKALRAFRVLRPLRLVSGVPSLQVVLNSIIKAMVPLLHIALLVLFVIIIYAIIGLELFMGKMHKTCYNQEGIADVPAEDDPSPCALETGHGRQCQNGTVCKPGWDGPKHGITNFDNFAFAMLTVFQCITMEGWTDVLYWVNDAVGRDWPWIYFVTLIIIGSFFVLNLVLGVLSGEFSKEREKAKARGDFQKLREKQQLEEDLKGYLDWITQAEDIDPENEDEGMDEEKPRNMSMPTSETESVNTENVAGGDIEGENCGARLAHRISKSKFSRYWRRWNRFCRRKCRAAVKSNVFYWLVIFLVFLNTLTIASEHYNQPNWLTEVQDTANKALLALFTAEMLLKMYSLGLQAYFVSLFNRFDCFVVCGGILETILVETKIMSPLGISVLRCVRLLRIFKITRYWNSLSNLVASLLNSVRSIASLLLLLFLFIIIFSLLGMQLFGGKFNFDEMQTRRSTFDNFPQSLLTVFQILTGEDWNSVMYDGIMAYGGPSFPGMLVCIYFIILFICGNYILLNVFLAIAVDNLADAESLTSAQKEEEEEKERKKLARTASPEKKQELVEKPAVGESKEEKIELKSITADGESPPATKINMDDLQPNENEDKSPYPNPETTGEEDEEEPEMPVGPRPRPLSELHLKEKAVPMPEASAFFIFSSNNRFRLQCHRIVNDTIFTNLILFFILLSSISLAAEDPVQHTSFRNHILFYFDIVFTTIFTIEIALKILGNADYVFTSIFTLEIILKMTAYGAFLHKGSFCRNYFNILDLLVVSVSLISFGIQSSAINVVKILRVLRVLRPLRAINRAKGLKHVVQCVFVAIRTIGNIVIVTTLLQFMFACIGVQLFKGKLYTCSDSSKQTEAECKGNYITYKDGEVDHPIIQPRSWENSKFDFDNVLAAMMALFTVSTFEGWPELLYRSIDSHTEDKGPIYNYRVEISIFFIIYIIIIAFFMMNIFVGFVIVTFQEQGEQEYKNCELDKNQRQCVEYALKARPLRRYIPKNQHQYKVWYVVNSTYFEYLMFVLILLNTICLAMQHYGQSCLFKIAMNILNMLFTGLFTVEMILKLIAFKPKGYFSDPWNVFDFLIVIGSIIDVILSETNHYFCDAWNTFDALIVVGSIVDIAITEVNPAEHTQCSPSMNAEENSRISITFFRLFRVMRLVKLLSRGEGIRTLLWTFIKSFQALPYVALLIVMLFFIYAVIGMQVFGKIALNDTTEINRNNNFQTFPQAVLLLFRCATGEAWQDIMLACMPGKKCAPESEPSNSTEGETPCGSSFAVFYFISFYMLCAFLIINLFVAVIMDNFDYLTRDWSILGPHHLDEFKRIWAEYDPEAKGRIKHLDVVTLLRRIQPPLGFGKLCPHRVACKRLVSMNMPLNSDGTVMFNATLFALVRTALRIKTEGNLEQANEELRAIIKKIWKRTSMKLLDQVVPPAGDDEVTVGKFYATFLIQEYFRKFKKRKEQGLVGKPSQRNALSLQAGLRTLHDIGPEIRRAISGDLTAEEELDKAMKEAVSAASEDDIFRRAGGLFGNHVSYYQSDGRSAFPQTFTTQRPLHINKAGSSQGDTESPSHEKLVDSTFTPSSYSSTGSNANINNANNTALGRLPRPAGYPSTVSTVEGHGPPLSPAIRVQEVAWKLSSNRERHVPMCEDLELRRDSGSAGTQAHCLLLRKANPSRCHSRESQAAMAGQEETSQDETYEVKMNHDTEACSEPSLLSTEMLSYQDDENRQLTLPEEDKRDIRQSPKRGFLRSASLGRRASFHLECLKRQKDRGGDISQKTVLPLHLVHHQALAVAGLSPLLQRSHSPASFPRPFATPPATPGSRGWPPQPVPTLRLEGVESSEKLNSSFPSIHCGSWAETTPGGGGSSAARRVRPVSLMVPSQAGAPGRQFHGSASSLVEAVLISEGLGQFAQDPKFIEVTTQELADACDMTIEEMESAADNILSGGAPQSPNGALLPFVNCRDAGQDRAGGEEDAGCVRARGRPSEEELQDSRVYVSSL
SMILES,"Cardiotoxicity Cav1.2 channel, effect (Cav1.2 channel)",IC50 (Cav1.2 channel) [µM],"Cytotoxicity THLE2 cells, effect (THLE2 cells)",IC50 (THLE2 cells) [µM],"Hepatic clearance, rating [1]",Hepatic clearance [1] [μL/ μL/min/mg protein],Hepatic clearance t1/2 (half-life) [1] [min],Hepatic clearance t1/2 (half-life) ([1]; listed as Pseurotin A2) [min],MTC (maximum tolerated concentration) (zebrafish larvae) [µg/mL],"Cytotoxicity SHSY5Y cells, effect (SHSY5Y cells)",IC50 (SHSY5Y cells) [µM],"Permeability, rating [2]",Permeability [2] [cm/s],Hepatic clearance t1/2 (half-life) ([1]; listed as Azaspirofuran A) [min]
CC/C=C\[C@H](O)[C@H](O)C1=C(C)C(=O)[C@]2(O1)C(=O)N[C@](OC)(C(=O)c1ccccc1)[C@H]2O [pseurotin A2],No effect,> 50,Weak,> 50,Low,<8.6,> 60,> 60,12.5,Decrease,17.9,Low,5e-08,
CCc1ccc(C2=C(C)C(=O)C3(O2)C(=O)NC(OC)(C(=O)c2ccccc2)C3O)o1 (centres unmarked) [azaspirofuran A],No effect,> 50,Weak,> 50,Medium,20.17,33,,12.5,Weak,> 50,High,1.864e-05,33.12
